Like-named read-outs stand apart in the source and are kept apart here.
How the values were obtained:
advanced solid tumors [1] = details: patients with advanced solid tumors; cited from earlier work
MetAP2 [2] = experiment: Met-EF1α pharmacodynamic biomarker in white blood cells; format: in vivo, human; details: 12 mg once daily and higher, from cycle 1, day 15 onward; no obvious dose correlation
Source text: (§1) Tumor biopsies were collected during the screening period and on cycle 2, day 1. White blood cell (WBC) samples were collected during the screening period, predose on days 1, 2, 8, and 15 of cycle 1 and postdose on days 1 and 15 of cycle 1. In addition, WBC samples were collected predose on days 1 and 15 of cycle 2.
(§2) No formal significance level was defined for this study and all analyses were considered descriptive.

[3] = system: patient-derived renal cell carcinoma xenografts; set-up: method as in earlier work; details: with sunitinib, cabozantinib, axitinib; Friese-Hamim M, personal communication; cited from earlier work
advanced solid tumors [4] = experiment: Antitumor activity by RECIST v1.1; format: in vivo, human
Experimental: Efficacy endpoints included best overall response [BOR: complete response (CR), partial response (PR), stable disease (SD), or progressive disease] according to the RECIST v1.1. criteria ([20]), clinical benefit (defined as CR, PR, or SD for ≥12 weeks) and progression-free survival (PFS). PFS was defined as time from first dose to objective disease progression or death, whichever occurred first. CT scans or MRI were performed predose to document the baseline tumor status using the most appropriate criteria for the malignancy type. Target and non-target lesions were selected on the basis of the initial scan. Clinical efficacy was assessed by the investigators according to RECIST v1.1 every two cycles (starting on day 1 of cycle 3).
For the efficacy analysis, objective response and clinical benefit were summarized and 95% exact Clopper–Pearson confidence intervals (CI) were estimated ([21]). Kaplan–Meier estimates were calculated for PFS and the CI for the median PFS was calculated according to Brookmeyer and Crowley ([22]).

MetAP2 [5] = experiment: Met-EF1α pharmacodynamic biomarker in tumor biopsies; format: in vivo, human; details: cycle 2, day 1
Source text: as §1, §2

[6] = system: human tumor cell xenografts in mice; set-up: method as in El Bawab S, personal communication; details: defined by preclinical modeling; ref El Bawab S, personal communication; cited from earlier work
[7] = system: metastatic renal carcinoma; set-up: method as in PMID 10561320; details: phase II, patients with metastatic renal carcinoma; cited from earlier work
[8] = cited from earlier work
[9] = cited from earlier work; remark: listed apart in the source

## CO[C@@H](C(=O)N[C@H]1CC[C@@H](OC(=O)C2CCCCC2)CNC1=O)[C@H](O)[C@@H](O)[C@H](O)/C=C/C(C)(C)C [LAF389]
Advanced solid tumors [1]
  Objective responses: failed to show any objective responses

## O=C(NCc1cc(F)cc(F)c1)[C@@]1(O)CCN(c2ccc3[nH]ccc3c2)C1=O [M8891]
MetAP2 [2]
  Pharmacodynamic response in WBCs: low and variable pharmacodynamic response
[3]
  Antitumor activity in combination with VEGFR-targeted TKIs: strong and durable antitumor activity
Advanced solid tumors [4]; 7 patients with BOR of SD
  Duration of stable disease: 42 to 123 days
Advanced solid tumors [4]; all doses, n = 27
  Objective responses: no objective responses
MetAP2 [5]; 7 to 35 mg once daily
  Met-EF1α accumulation in tumors: tended to increase up to 35 mg once daily in a dose-dependent manner
MetAP2 [5]; ≥35 mg once daily
  Met-EF1α levels in tumor: ≥ 125 μg/mg protein
[6]
  Target Met-EF1α level expected to be correlated with efficacy: 125 μg/mg protein

## CO[C@@H]1[C@H](OC(=O)NC(=O)CCl)CC[C@]2(CO2)[C@H]1[C@@]1(C)O[C@@H]1CC=C(C)C [TNP-470]
[7]
  Objective responses: failed to show any significant objective responses
[8]
  Pharmacokinetic variability in phase I studies: high pharmacokinetic variability
[9]
  Neurotoxicity in phase I studies: considerable neurotoxicity
